Experimental data reported in patent publication US9994522B2, “Amorphous form of apremilast” (MAPI PHARMA LTD., priority 2014, dated 2018).

Legend:
[1] = Dynamic Vapor Sorption (DVS) / hygroscopicity; format: physicochemical; details: for Change In Mass (%) - ref, Desorption / Change In Mass (%) - ref, Sorption / Change In Mass (%) - ref, Hysteresis: 25° C.
Method: Details of DVS method used in the tests are mentioned below: • Samples (about 10 mg) were transferred into a DVS pan, the weight changes were recorded with respect to the atmospheric humidity at 25° C.
The following parameters were used: • Equilibrium: dm/dt: 0.01%/min. (for min: 10 min and max: 180 min). • Drying: 0% RH for 120 min. • RH (%) measurement step: 5%, • RH (%) measurement step scope: 0˜95˜0%.

[2] = Physical stability on storage, appearance; format: physicochemical
Method: About 40 mg of scaled up amorphous sample prepared by solvent-anti-solvent precipitation (addition of water to acetone) as described in Example 6 was weighed into glass vials. The vials were stored under different testing conditions (25° C. closed vial, 25° C./60% RH, 40° C. closed vial and 40° C./75% RH) 1 week, 2 weeks, 4 weeks, and 3 months. The original scaled up amorphous form was used as a control. XRPD and mDSC were checked at the end of each time point.

[3] = DVS Cycle 1, target 10.0 % P/Po
[4] = DVS Cycle 1, target 15.0 % P/Po
[5] = DVS Cycle 1, target 20.0 % P/Po
[6] = DVS Cycle 1, target 25.0 % P/Po
[7] = DVS Cycle 1, target 30.0 % P/Po
[8] = DVS Cycle 1, target 35.0 % P/Po
[9] = DVS Cycle 1, target 40.0 % P/Po
[10] = DVS Cycle 1, target 45.0 % P/Po
[11] = DVS Cycle 1, target 50.0 % P/Po
[12] = DVS Cycle 1, target 55.0 % P/Po
[13] = DVS Cycle 1, target 60.0 % P/Po
[14] = DVS Cycle 1, target 65.0 % P/Po
[15] = DVS Cycle 1, target 70.0 % P/Po
[16] = DVS Cycle 1, target 75.0 % P/Po
[17] = DVS Cycle 1, target 80.0 % P/Po
[18] = DVS Cycle 1, target 85.0 % P/Po
[19] = DVS Cycle 1, target 90.0 % P/Po
[20] = DVS Cycle 1, target 95.0 % P/Po

What does the source list for `CCOc1cc([C@@H](CS(C)(=O)=O)N2C(=O)c3cccc(NC(C)=O)c3C2=O)ccc1OC` [amorphous apremilast, N-[2-[(1S)-1-(3-ethoxy-4-methoxyphenyl)-2-(methylsulfonyl)ethyl]-2,3-dihydro-1,3-dioxo-1H-isoindol-4-yl]acetamide]?
Change In Mass (%) - ref, Desorption ([1]; DVS Cycle 1, target 0.0 % P/Po): −0.066%; Change In Mass (%) - ref, Sorption ([1]; DVS Cycle 1, target 0.0 % P/Po): −0.010%; Change In Mass (%) - ref, Desorption ([1]; DVS Cycle 1, target 5.0 % P/Po): 0.138%; Change In Mass (%) - ref, Hysteresis ([1]; DVS Cycle 1, target 5.0 % P/Po): −0.045%; Change In Mass (%) - ref, Sorption ([1]; DVS Cycle 1, target 5.0 % P/Po): 0.183%; Change In Mass (%) - ref, Desorption [1, 3]: 0.308%; Change In Mass (%) - ref, Hysteresis [1, 3]: −0.006%; Change In Mass (%) - ref, Sorption [1, 3]: 0.314%; Change In Mass (%) - ref, Desorption [1, 4]: 0.463%; Change In Mass (%) - ref, Hysteresis [1, 4]: 0.030%; Change In Mass (%) - ref, Sorption [1, 4]: 0.434%; Change In Mass (%) - ref, Desorption [1, 5]: 0.606%; Change In Mass (%) - ref, Hysteresis [1, 5]: 0.066%; Change In Mass (%) - ref, Sorption [1, 5]: 0.540%; Change In Mass (%) - ref, Desorption [1, 6]: 0.740%; Change In Mass (%) - ref, Hysteresis [1, 6]: 0.107%; Change In Mass (%) - ref, Sorption [1, 6]: 0.633%; Change In Mass (%) - ref, Desorption [1, 7]: 0.860%; Change In Mass (%) - ref, Hysteresis [1, 7]: 0.131%; Change In Mass (%) - ref, Sorption [1, 7]: 0.730%; Change In Mass (%) - ref, Desorption [1, 8]: 0.976%; Change In Mass (%) - ref, Hysteresis [1, 8]: 0.155%; Change In Mass (%) - ref, Sorption [1, 8]: 0.821%; Change In Mass (%) - ref, Desorption [1, 9]: 1.090%; Change In Mass (%) - ref, Hysteresis [1, 9]: 0.181%; Change In Mass (%) - ref, Sorption [1, 9]: 0.909%; Change In Mass (%) - ref, Desorption [1, 10]: 1.203%; Change In Mass (%) - ref, Hysteresis [1, 10]: 0.200%; Change In Mass (%) - ref, Sorption [1, 10]: 1.003%; Change In Mass (%) - ref, Desorption [1, 11]: 1.311%; Change In Mass (%) - ref, Hysteresis [1, 11]: 0.224%; Change In Mass (%) - ref, Sorption [1, 11]: 1.087%; Change In Mass (%) - ref, Desorption [1, 12]: 1.411%; Change In Mass (%) - ref, Hysteresis [1, 12]: 0.238%; Change In Mass (%) - ref, Sorption [1, 12]: 1.173%; Change In Mass (%) - ref, Desorption [1, 13]: 1.514%; Change In Mass (%) - ref, Hysteresis [1, 13]: 0.250%; Change In Mass (%) - ref, Sorption [1, 13]: 1.263%; Change In Mass (%) - ref, Desorption [1, 14]: 1.619%; Change In Mass (%) - ref, Hysteresis [1, 14]: 0.258%; Change In Mass (%) - ref, Sorption [1, 14]: 1.360%; Change In Mass (%) - ref, Desorption [1, 15]: 1.730%; Change In Mass (%) - ref, Hysteresis [1, 15]: 0.270%; Change In Mass (%) - ref, Sorption [1, 15]: 1.460%; Change In Mass (%) - ref, Desorption [1, 16]: 1.836%; Change In Mass (%) - ref, Hysteresis [1, 16]: 0.338%; Change In Mass (%) - ref, Sorption [1, 16]: 1.498%; Change In Mass (%) - ref, Desorption [1, 17]: 1.940%; Change In Mass (%) - ref, Hysteresis [1, 17]: 0.306%; Change In Mass (%) - ref, Sorption [1, 17]: 1.634%; Change In Mass (%) - ref, Desorption [1, 18]: 1.972%; Change In Mass (%) - ref, Hysteresis [1, 18]: 0.208%; Change In Mass (%) - ref, Sorption [1, 18]: 1.763%; Change In Mass (%) - ref, Desorption [1, 19]: 1.956%; Change In Mass (%) - ref, Hysteresis [1, 19]: 0.122%; Change In Mass (%) - ref, Sorption [1, 19]: 1.834%; Change In Mass (%) - ref, Desorption [1, 20]: 1.883%; Change In Mass (%) - ref, Sorption [1, 20]: 1.883%; Hygroscopicity Classification ([1]; based on DVS data, criterion at 25 ± 1° C. and 80 ± 2% RH): slightly hygroscopic; Appearance ([2]; Initial): Light Yellow; Appearance ([2]; stored 25° C. Closed, 1st week): Light; Appearance ([2]; stored 25° C. Closed, 2nd week): Light
